Laboratory results reported in patent EP2803363A1, “The antigen CYBA-72Y/B15 and uses thereof” (Universitätsmedizin der Johannes Gutenberg-Universität Mainz, priority 2013, dated 2014).
Ends that are not written are not given here.

Legend:
miniMLLC 2E8 [1] = assay: 20h-IFN-gamma ELISpot assay: recognition of synthetic CYBA peptides loaded on HLA-B*15:01-transfected 293T cells; type: cell-based; conditions: for peptide recognition by T lymphocytes against CYBA-72Y/B15: summary statement for all T lymphocytes (miniMLLCs), assay not given; for recognition by T cells using an IFN-gamma-ELISpot assay: 293T cells transfected with HLA-B*15:01, loaded with peptide at different concentrations, 2E8 effector cells, Figure 3A
Description: The present invention will now be further described in the following examples with reference to the accompanying figures and sequences, nevertheless, without being limited thereto. For the purposes of the present invention, all references as cited herein are incorporated by reference in their entireties. The Figures and Sequences show: • Figure 1: HLA restriction of miniMLLC 2E8. A) MZ529-EBV-B-cells (5x10^4 cells/well) were co-incubated in the presence of HLA-specific antibodies at concentrations mediating complete blocking of control-T lymphocytes with corresponding HLA restriction, with the miniMLLC 2E8 (1x10^4 cells/TU) in duplicate reactions in a 20h-IFN-gamma ELISpot assay. B) COS-7-cells (2x10^4 cells/well) were transfected with the HLA alleles of patient MZ529-AML and Buffy Coat donor 730 and tested in duplicate reactions for recognition by 2E8 (2x10^4 cells/well) in a 20h-IFN-gamma ELISpot assay. • Figure 2: Fragment analysis of the cDNA clone #428.67.4 for the identification of the peptide-coding region. 3'-fragments with a length difference of one codon (i.e. one amino acid) were generated from the cDNA clone #428.67.4 encoding the full-length CYBA-72Y, and were tested after co-transfection with HLA-B*15:01 into 293T cells (2x10^4 cells/well) in a 20h-IFN-gamma ELISpot assay for recognition by 2E8 (1.5x10^4 cells/well). MZ529-EBV-B cells (5x10^4 cells/well) served as positive control target. • Figure 3: Peptide recognition by the miniMLLC 2E8. (A) For a 20h-IFN-gamma ELISpot assay, 293T cells (2x10^4 cells/well) were transfected with HLA-B*15:01, were loaded with the indicated synthetic CYBA peptides at different concentrations, and were tested in duplicate reactions for recognition by 2E8 (2x10^4 cells/well). (B) For a […]-^51Cr-release assay, HLA-B*15:01-expressing L721.221-cells (2x10^4 cells/well) were loaded with the indicated synthetic CYBA peptides at different concentrations, and co-incubated in duplicate experiments with 2E8 (2x10^4 cells/well). • Figure 4: Recognition of non-malignant hematopoietic cells from HLA-B*15:01-positive BC donors by the CYBA-72Y/B15-specific miniMLLC 2E8. (A) From PBMCs of HLA-B*15:01-positive BC donors, who -with the exception of BC848 - carried at least one CYBA-242T allele (coding for CYBA-72Y), monocytes were purified using plastic adherence and differentiated to mature dendritic cells (mDCs) using cytokines. In duplicates 5x10^4 (BC087, BC848, BC967) or 3x10^4 (BC241, BC048) cells per well were tested for recognition by 2E8 (1.5x10^4 cells/well) in 20h-IFN-gamma ELISpot assays. […]

miniMLLC 2E8 [2] = assay: 48h-51Cr-release assay: synthetic CYBA peptides loaded on HLA-B*15:01-expressing L721.221-cells; type: cell-based; conditions: HLA-B*15:01-expressing L721.221-cells loaded with peptide at different concentrations; 2E8 effector cells; Figure 3B
Description: The present invention will now be further described in the following examples with reference to the accompanying figures and sequences, nevertheless, without being limited thereto. For the purposes of the present invention, all references as cited herein are incorporated by reference in their entireties. The Figures and Sequences show: • Figure 1: HLA restriction of miniMLLC 2E8. A) MZ529-EBV-B-cells (5x10^4 cells/well) were co-incubated in the presence of HLA-specific antibodies at concentrations mediating complete blocking of control-T lymphocytes with corresponding HLA restriction, with the miniMLLC 2E8 (1x10^4 cells/TU) in duplicate reactions in a 20h-IFN-gamma ELISpot assay. B) COS-7-cells (2x10^4 cells/well) were transfected with the HLA alleles of patient MZ529-AML and Buffy Coat donor 730 and tested in duplicate reactions for recognition by 2E8 (2x10^4 cells/well) in a 20h-IFN-gamma ELISpot assay. • Figure 2: Fragment analysis of the cDNA clone #428.67.4 for the identification of the peptide-coding region. 3'-fragments with a length difference of one codon (i.e. one amino acid) were generated from the cDNA clone #428.67.4 encoding the full-length CYBA-72Y, and were tested after co-transfection with HLA-B*15:01 into 293T cells (2x10^4 cells/well) in a 20h-IFN-gamma ELISpot assay for recognition by 2E8 (1.5x10^4 cells/well). […]

[3] = biological target: T1, CYBA-72Y peptide on HLA-B*15:01 (human); assay: cytokine release
T1 peptide: WGQKYMTAVV

[4] = biological target: T2, CYBA-72Y (cytochrome b-245 alpha-polypeptide, p22phox; SNP rs4673, tyrosine at position 72) peptide on … (human); assay: cytokine release
T2 peptide: GQKYMTAVV

GQKHMTAVV [homologous peptide from CYBA-72H, reference compound]
peptide recognition by T lymphocytes against CYBA-72Y/B15 (miniMLLC 2E8 [1]): did not lead to any reactivity

GQKYMTAVV [GQKYMTAVV]
recognition by T cells by means of a 51Cr-(chromium) release test (miniMLLC 2E8 [2]): recognized at lower concentrations | recognition by T cells using an IFN-gamma-ELISpot assay (miniMLLC 2E8 [1]): recognized at lower concentrations | peptide recognition by T lymphocytes against CYBA-72Y/B15 (miniMLLC 2E8 [1]): recognized by all T lymphocytes at the lowest concentration

WGQKYMTAVV [WGQKYMTAVV]
recognition by T cells by means of a 51Cr-(chromium) release test (miniMLLC 2E8 [2]): recognized | recognition by T cells using an IFN-gamma-ELISpot assay (miniMLLC 2E8 [1]): recognized

B1: T-cell receptor cloned from miniMLLC 2D10 (TCR)
alpha TRAV10*01 TRAJ42*01 CDR3: CVVSRIYGGSQGNLIF
beta TRBV20-1*02 TRBJ2-3*01 CDR3: CSARGFSGVTDTQYF
binding result [3]: recognises | binding result [4]: recognises
